Assay [1] concerns LPS-stimulated mouse macrophage RAW264.7 cells (小鼠巨噬细胞RAW264.7细胞). The following applies: LPS-stimulated RAW264.7; earlier study of the applicant's group; read-out: IC50 (inhibition of NO production); cited from earlier work.
Assay [2] concerns LPS-stimulated mouse macrophage RAW264.7 cells, NO production (小鼠巨噬细胞RAW264.7细胞, 一氧化氮(NO)生成). Description: Griess assay of NO production in LPS-stimulated RAW264.7 cells. The assay is classed as cell-based.
Assay [3] has as its target MAFF protein (MAFF蛋白) (Homo sapiens, UniProt Q9ULX9). The assay is described as follows: Microscale thermophoresis (MST). It is filed as binding. In general terms: MST reads how a fluorescent partner responds to local heating, with and without ligand.
For assay [4], the target named is T1, MAFF protein (MAFF蛋白) (Mus musculus, UniProt O54791).
T1 construct: endogenous in cells; host or cells: RAW264.7
T1 sequence (O54791 whole entry): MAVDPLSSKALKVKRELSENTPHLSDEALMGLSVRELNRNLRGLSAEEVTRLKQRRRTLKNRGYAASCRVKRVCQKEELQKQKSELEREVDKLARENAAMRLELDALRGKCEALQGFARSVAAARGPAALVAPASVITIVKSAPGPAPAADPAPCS
The assay is described as follows: CETSA in RAW264.7 cells. The following applies: 40 μM, 4 h; 64-72 ℃. It is filed as cell-based.

Assay [5] addresses T2, MAFF (Mus musculus, UniProt O54791).
T2 construct: endogenous in cells; host or cells: RAW264.7
The assay is described as follows: DARTS in RAW264.7 lysate. It is filed as binding. The following applies: 10, 20 and 40 μM; Pronase 1:1000, 37 ℃ 15 min.

By IC50 is commonly meant the concentration at which inhibition is half-maximal. The Kd is the free concentration of one partner at which half of the binding sites on the other are occupied at equilibrium, for simple one-to-one binding. A low value points to higher affinity.

T2 sequence (O54791 whole entry): as above
Sequence of MAFF protein (MAFF蛋白) (Homo sapiens, UniProt Q9ULX9) (Q9ULX9 whole entry, species assumed): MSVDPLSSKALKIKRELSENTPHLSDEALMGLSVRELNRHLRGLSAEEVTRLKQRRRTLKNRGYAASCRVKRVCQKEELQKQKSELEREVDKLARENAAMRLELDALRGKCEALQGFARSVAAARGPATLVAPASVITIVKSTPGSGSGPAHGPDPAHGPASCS

As for `C=C1CC[C@H]2[C@@H](/C=C(\C)C(=O)[C@@]3(OC(C)=O)C[C@H](C)[C@H](OC(=O)/C=C/c4ccccc4)[C@@H]3[C@H]1O)C2(C)C` [2S,3S,4S,5R,9S,11R,15R)-15-acetoxy-3-cinnamoyloxy-5-hydroxy-14-oxolathyra-6(17),12E-diene], the IC50 in assay [1] is 3 ± 1.1 µM.
Turning to `C=C1CC[C@H]2[C@@H](/C=C(\C)C(=O)[C@@]3(O)C[C@H](C)[C@H](O)[C@@H]3[C@H]1O)C2(C)C` [Lathyrol], the IC50 in assay [2] (Mus musculus, RAW264.7, read-out: IC50 (inhibition of NO production)) came out at 11.1 ± 1.14 µM. The “inhibition of LPS-stimulated NO production (in words)” value in assay [2] (RAW264.7, compound 3 h, then LPS 1 μg/mL 24 h) is listed as “良好的抑制作用”. Further, the Kd in assay [3] was determined as 20.9 ± 2.34 µM. Further, the “thermal stability of MAFF protein” value in assay [4] is on record as “提高了MAFF蛋白的热稳定性”. The “degradation of MAFF by Pronase” value in assay [5] is given as “降解程度显著降低”.

Source of the values: CN116559458A, “基于protac蛋白靶向降解技术的活性天然产物靶点鉴定方法及protac化合物” (Shenyang Pharmaceutical University, priority 2022, dated 2023).
